One compound from patent US11357766B2, “Compositions and methods for treating cancer” (Texas Tech University System, priority 2017, dated 2022) can be followed below.

Data set [1] has as its system Akt, STAT3 and sonic hedgehog signaling in AsPC1, BxPC3, PANC1, and MIAPaCa2 cells. The data set is described as follows: Western blot analysis of whole cell lysates. The format is cell-based, human. The note with it: 48 hours. How it is done:
Briefly, in FIG. 3A AsPC1 cells, FIG. 3B BxPC3 cells, FIG. 3C PANC1 cells, and FIG. 3D MIAPaCa2 cells, were treated with 5, 7.5 and 10 μM pimavanserin tartrate for 48 hours. Representative blots showing a concentration-dependent effect of pimavamserin tartrate on pAkt(S473), pSTAT3(Y705), c-Myc, Oct-4, SOX-2, NANOG, CD44, GLI1, cleaved caspase3. β-actin was used as a loading control. Figures shown are the representative blots of at least three independent tests.
Western blot analysis. AsPC1, BxPC3, PANC1, and MIAPaCa2 cells were treated with varying concentrations of pimavanserin tartrate for 48 hours. After 48 hours, cells were collected and subjected to PBS wash twice. The whole cell lysates were prepared using 4% (w/v) CHAPS in urea-tris buffer. Protein content in the lysates were estimated using Bradford reagent (Bio-rad, California, USA). 40 μg of protein from whole cell lysates were subjected to SDS-PAGE and the resolved proteins were transferred onto PVDF membrane. The membranes were probed for primary antibodies against pSTAT3(Y705), pAkt(S473), β-catenin, c-Myc, OCT4, SOX-2, NANOG, CD44, GLI1, cleaved caspase-3 and β-actin. All primary antibodies were procured from Cell Signaling Technologies (Danvers, Mass.) except β-actin (Sigma Aldrich, St. Louis, Mo.). Dilution factor was 1:1000 for all the antibodies from Cell Signaling and 1:2000 for β-actin antibody. The membranes were developed as described by the present inventors (16).
Inhibition of Akt, STAT3 and sonic hedgehog signaling by pimavanserin. Since significant growth suppressive effects and apoptosis by pimavanserin treatment were observed, the inventors further elucidated the molecular mechanism by which pimavanserin mediates the above-mentioned effects. The inventors performed western blot analysis using whole cell lysates from AsPC1, BxPC3, PANC1, and MIAPaCa2 cells treated with 0, 5, 7.5 and 10 μM pimavanserin for 48 hours. […] Akt and STAT3 signaling modulates OCT-4, SOX-2, NANOG to activate GLI1, a transcription factor involved in sonic hedgehog signaling (7).

The test system of the next data set is AsPC1 cells. The data set is described as follows: AnnexinV/FITC apoptosis assay. The format is cell-based, human. The settings on record: 7.5 μM, 48 hours. How it is done:
(§1) Briefly, the following cells were treated at 0.2×10^6, in FIG. 2A AsPC1 cells, FIG. 2B BxPC3 cells, and in FIG. 2C PANC1 cells, which were plated and treated with 5, 7.5 and 10 μM pimavanserin tartrate for 48 hours. Percent apoptotic cells was evaluated by AnnexinV/FITC apoptosis assay using Accuri C6 flow cytometer. Studies were repeated independently 3 times.
(§2) AnnexinV/FITC apoptosis assay. The effects of pimavanserin in inducing apoptosis were assessed by AnnexinV/FITC apoptosis assay. The assay was performed by FITC AnnexinV apoptosis detection kit (BD biosciences, San Jose, Calif., USA). Briefly, 0.2×10^6 pancreatic cancer cells were plated in each well of 6-well plate and incubate overnight for the cells to attach. The cells were then treated with varying concentrations of pimavanserin tartrate. After 48 hours, cells were trypsinized and suspended in PBS. Cells were washed and re-suspended in 150 μl of annexin binding buffer. The cells were then stained with 4 μl AnnexinV FITC and 4 μl propidium iodide for 20 minutes in dark. Post incubation, the volume was adjusted to 350 μl by adding annexin binding buffer. Samples were then analyzed by flow cytometer (Accuri C6, AnnArbor, Mich., USA) as previously described by the present inventors (7).
(§3) Pimavanserin induces apoptosis in pancreatic cancer cells. In order to determine the mechanism of anti-proliferative effects of pimavanserin tartrate, apoptosis induction by pimavanserin tartrate treatment was determined in AsPC1, BxPC3 and PANC1 pancreatic cancer cells by AnnexinV/FITC assay using flow cytometer. […] Treatment of AsPC1 and BxPC3 cells with 7.5 μM pimavanserin caused 2-fold increase in apoptotic cells (FIG. 2A, 2B), whereas in PANC1 cells, a 4-fold increase in apoptotic cells was observed (FIG. 2C). […] Induction of apoptosis by pimavanserin treatment in AsPC1, BxPC3 and PANC1 cells was confirmed by cleavage of caspase 3 (FIGS. 3A-3C).

The next data set deals with PANC1 cells. The data set is described as follows: AnnexinV/FITC apoptosis assay. The format is cell-based, human. The note with it: 48 hours. Here is the method:
as §1, §2, §3

For a further data set, the system named is BxPC3 cells. The data set is described as follows: AnnexinV/FITC apoptosis assay. The format is cell-based, human. The note with it: 48 hours. How it is done: as §1, §2, §3
Another data set deals with pancreatic cancer cells. The data set is described as follows: Glycolysis, mitochondrial respiration and marker expression in pancreatic cancer cells. The format is cell-based.
In data set [2] the test system is behavioral activity of mice. The data set is described as follows: Mice behavioral analysis (Versamax). The format is in vivo. The settings on record: after 67 days of 10 mg/kg; mice bearing orthotopic pancreatic tumors. Here is the method:
In orthotopic experiment, behavioral activity was measured using Versamax (Accuscan instruments) after 67 days of oral administration of 10 mg/kg pimavanserin tartrate. The following were measured, in FIG. 6A total distance; FIG. 6B horizontal activity' FIG. 6C vertical activity; and FIG. 6D ambulatory activity. Values are plotted as mean±SEM.
Mice behavioral analysis. In orthotopic studies, the behavioral activity of mice was analyzed after chronic administration of pimavanserin tartrate for […]. The behavioral analysis was performed by Versamax (Accuscan Instruments Inc., Columbus, Ohio, USA) as previously described by the present inventors (7, 12).
Pimavanserin tartrate is an anti-psychotic drug used for the treatment of Parkinson disease. Owing to its action on the central nervous system, the behavioral activity of mice after long-term pimavanserin tartrate administration was assessed. The behavioral activity of mice was monitored after 67 days of 10 mg/kg pimavanserin treatment using Versamax (Accuscan Instruments Inc.).

Setting [3] is: 0, 5, 7.5 and 10 μM, all the cell lines tested, concentration dependent.

For the compound `CC(C)COc1ccc(CNC(=O)N(Cc2ccc(F)cc2)C2CCN(C)CC2)cc1` [pimavanserin, N-(4-fluorophenylmethyl)-N-(1-methylpiperidin-4-yl)-N′-(4-(2-methylpropyloxy)phenylmethyl)carbamide], the “expression of GLI1” value in data set [1] (setting [3]) is “significantly inhibited”. For the same compound, the “phosphorylation of STAT3 at Tyr705” value in data set [1] (setting [3]) was “significantly inhibited”. The “cancer stem cell markers OCT4, SOX-2, NANOG and CD44” value in data set [1] is given as “remarkable inhibition”. For the same compound, in data set [1] (AsPC1, BxPC3, and MIAPaCa2 cells), the “phosphorylation of Akt at Ser473” value was “significantly reduced”. Besides, in data set [1] (all the cell lines tested), the “expression of β-catenin” value was “reduced”. The “cleavage of caspase 3” value in data set [1] (pancreatic cancer cells, concentration dependent) was “significant cleavage”. In addition, the “increase in apoptotic cells” value with AsPC1 cells is reported as 2 fold; in the data set with PANC1 cells (7.5 μM) it was 4 fold; in the data set on PANC1 cells (10 μM), 5 fold; in the data set on BxPC3 cells (7.5 μM), 2 fold; in the data set on BxPC3 cells (10 μM) it was 5 fold. Further, in the data set with pancreatic cancer cells (Western blot), the “cleavage of caspase3 and PARP” value is “increasing”. Moreover, in the data set on pancreatic cancer cells (Western blot), the “expression of main metabolic markers Hexokinase-1, LDH-A and FOXM1” value is given as “inhibits”. The “glycolysis and mitochondrial respiration” value in the data set on pancreatic cancer cells (pancreatic cancer cells) is reported as “inhibits”. Moreover, in the data set on pancreatic cancer cells (pancreatic cancer cells), the “key oncogenic markers pAkt(S473), pSTAT3 (Y705 & S727), β-catenin, Cyclin D1, Mc1-1, HER2, EGFR, VEGFR2, c-Myc, CD44, Oct-4” value is listed as “inhibiting”. Moreover, the “behavioral activity parameters (total distance, horizontal, vertical and ambulatory activity) vs control” value in data set [2] is “did not change”.
